What was measured:
[1] = system: S. aureus (129B strain); assay: Mature biofilms, MTT assay; assay type: cell-based, Staphylococcus aureus; set-up: key: ↓: Decrease in the parameter (optical density) compared to the negative control; −: No decrease in the parameter; ↑: Reverse effect (increase in the optical density compared to the control); details: mature biofilm: peptide added after 24 h, further 24 h; 0.01-10 mg/mL
Description: (§1) After 24 h of incubation, the medium was removed. To assess the total biofilm biomass, the wells were rinsed with sterile PBS solution and stained with 0.1% crystal violet. The dye bound to the surface was then removed using 95% ethanol. To assess the presence of metabolically active cells, 0.3% MTT (PanEco Ltd., Moscow, Russia) solution was added to each well, and the plates were incubated at 37 °C for 2 h. After incubation, the MTT solution was removed, 150 µL of DMSO (Chimmed, Moscow, Russia) and 25 µL of glycine buffer were added to each well, and the plates were left at room temperature for 15 min. The resulting solutions were transferred to a flat-bottom 96-well plate, and optical density was measured at 595 nm.
(§2) A stationary-phase culture of the tested strain was diluted 100-fold in fresh medium (200 µL per well) and added to the wells of a 96-well round-bottom plate. […] After another 24 h, the medium was removed and the wells were rinsed with sterile PBS to eliminate planktonic cells. The procedures for assessing total biofilm biomass and cell metabolic activity using crystal violet and MTT assays were performed in the same manner as described above for early-stage biofilm experiments.

[2] = system: S. aureus (129B strain); assay: Mature biofilms, MTT assay; assay type: cell-based, Staphylococcus aureus; details: mature biofilm
Description: as §1, §2

[3] = system: S. aureus (129B strain); assay: Mature biofilms, crystal violet staining; assay type: cell-based, Staphylococcus aureus; set-up: key: ↓: Decrease in the parameter (optical density) compared to the negative control; −: No decrease in the optical density; ↑: Reverse effect (increase in the optical density compared to the control); details: mature biofilm: peptide added after 24 h, further 24 h; 0.01-10 mg/mL
Description: as §1, §2

[4] = system: MRSA (SA 180-F strain); assay: Mature biofilms, MTT assay; assay type: cell-based, methicillin-resistant Staphylococcus aureus; set-up: key: ↓: Decrease in the parameter (optical density) compared to the negative control; −: No decrease in the optical density; ↑: Reverse effect (increase in the optical density compared to the control); details: mature biofilm: peptide added after 24 h, further 24 h; 0.01-10 mg/mL
Description: as §1, §2

Sequence	change of optical density after MTT assay vs negative control [1]	metabolic activity of cells within mature biofilms (MTT) ([2]; 0.01, 0.1, 1, and 10 mg/mL)	concentration given with ↓ (MTT) [2] [mg/mL]	change of optical density after crystal violet staining vs negative control [3]	change of optical density after MTT assay vs negative control [4]
ITDFGIFIGLGGGGSRQIKIWFQNRRMKWKK [I31K^P]	↓ (0.01 mg/mL)	decreased the metabolic activity	0.01		
RKKRRQRRRGGGGVTDFGVFVEI [R23I^T, TAT cell-penetrating peptide linked via glycine linker to amyloidogenic fragment of S1 ribosomal protein of T. thermophilus]				−	−

Source: PMC12470154, “In Vitro Evaluation of Antimicrobial Amyloidogenic Peptides for the Treatment of Early and Mature Bacterial Biofilms” (International Journal of Molecular Sciences, 2025)
